{"source": "patent US20210290644A1", "about": "“COMPOUNDS AND METHODS FOR TREATING FUNGAL INFECTIONS” (Amplyx Pharmaceuticals, Inc., priority 2018, published 2021)", "key": {"[1]": {"conditions": "human, in vivo", "text": "(§1) This was a Phase 1, first-in-human, randomized, double-blind, placebo-controlled single ascending dose (SAD) and multiple ascending dose (MAD) escalation study of 120 healthy male and female subjects. The objectives of the study were to evaluate the safety, tolerability, and pharmacokinetics of single and multiple doses of Compound 1 administered by intravenous (IV) infusion.\n(§2) In the single ascending dose (SAD) phase, Cohorts 1 to 6 and 11A to 11D received single doses. For Cohorts 11A to 11D, the infusion time varied from 0.5 to 3 hours to evaluate the relationship between C., and tolerability. In the multiple ascending dose (MAD) phase, Cohorts 7 to 10 received multiple doses over 14 days, and Cohort 12 examined the feasibility of a loading dose regimen.\n(§3) Blood samples for the determination of Compound 1 and Compound 1A plasma concentrations were collected before and at appropriate times during all single- and multiple-dose administrations of Compound 1. For SAD Cohorts 1 to 6, urine samples for the determination of Compound 1A were collected through 48 hrs after dosing.\n(§4) Eighty (80) subjects were enrolled into SAD Cohorts 1 to 6 and 11A to 11D. Within each cohort, six subjects were randomized to Compound 1 and two subjects to placebo. All 60 subjects randomized to Compound 1 completed dosing. Fifty-nine (59) subjects completed the study.\n(§5) Forty (40) subjects were enrolled into MAD Cohorts 7 to 10 and Loading Dose Cohort 12. Within each cohort, six subjects were randomized to Compound 1 and two subjects to placebo.\n(§6) The PK analysis population therefore consisted of 60 subjects in the SAD phase and 28 subjects in the MAD phase."}, "clinical": {"test": "clinical", "conditions": "both, human, iv; for clearance / half-life: in vivo", "text": "as §1, §2, §3, §4, §5, §6"}, "[2]": {"test": "Study #2 Phase 1: effect of food (fed vs fasted) on pharmacokinetics of Compound 1A after 400 mg oral Compound 1;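 further: cohort 1b subjects took one oral dose in both fed and fasted states, across two separate periods (E, F) within the single ascending dose phase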", "conditions": "for F: 400 mg oral, ratio of geometric mean AUC(inf) to IV treatment after correction for dose", "text": "Study #2 of Compound 1 was a Phase 1, double-blind, placebo-controlled, randomized study in healthy volunteers that consisted of a series of single and multiple dose treatments. In the single ascending dose (SAD) phase, subjects in Cohort 1a received a single IV dose in Period A and then rising single oral doses in Periods B to D. Subjects in Cohort 1b received a single oral dose under fed and fasted conditions in Periods E and F. Subjects in Cohorts 2 and 3 received once-daily oral doses for 14 days, as did subjects in Cohort 4 as part of an in vivo screen for drug-drug interaction (DDI) potential.\nBlood samples for the determination of Compound 1 and Compound 1A plasma concentrations were collected before and at appropriate times during all single and multiple dose administrations of Compound 1. For SAD Cohorts 1a and 1b, urine samples for the determination of Compound 1A were collected through 48 hrs after dosing."}, "[3]": {"test": "Study #1 Phase 1: plasma and urine pharmacokinetics of Compound 1 and Compound 1A after IV infusion of Compound 1 (SAD, MAD, loading regimen)", "conditions": "both, human", "text": "as §1, §2, §3, §4, §5, §6"}, "[4]": {"conditions": "Cohort 1B, 400 mg oral Compound 1, fed vs fasted"}, "[5]": {"conditions": "plasma, 30 mg, Cohort 2: Compound 1 30 mg/3 hr IV, single dose, geometric mean [geometric %CV]"}, "[6]": {"conditions": "plasma, 100 mg, Cohort 3: Compound 1 100 mg/3 hr IV, single dose, geometric mean [geometric %CV]"}}, "note": "Values joined by “and” are separate entries in the source; they are usually repeats but may differ in a detail not shown here. Equal values may be shown once. “Also recorded” adds a separate entry of the source.", "data": [{"molecule": "Nc1ncccc1-c1cc(Cc2ccc(COc3ccccn3)cc2)no1", "note": "[Compound 1A]", "values": [{"measurement": "slope of log-log AUC0-24 vs. dose (power model parameter b)", "setting": "[1]; both", "value": "1.015±0.043"}, {"measurement": "slope of log-log steady-state Cmax vs. dose (power model parameter b)", "setting": "[1]; both", "value": "1.039±0.031"}, {"measurement": "CL", "setting": "[1]; both, iv", "value": 0.387, "unit": "mL/min/kg"}, {"measurement": "median accumulation, ratio of AUC0-24 on Day 14 to Day 1", "setting": "[1]; both, iv", "value": 3.27}, {"measurement": "median accumulation, ratio of Cmax on Day 14 to Day 1", "setting": "[1]; both, iv", "value": 1.96}, {"measurement": "slope of log-log AUC(inf) versus dose (power model parameter b)", "setting": "[1]; both, iv", "value": "1.01±0.020"}, {"measurement": "slope of log-log Cmax versus dose (power model parameter b)", "setting": "[1]; both, iv", "value": "0.929±0.021"}, {"measurement": "time at which steady-state is reached", "setting": "[1]; both, iv", "value": "between Day 7 and Day 14"}, {"measurement": "target plasma exposures (AUC0-24) for clinical efficacy against Candida spp., Aspergillus spp., rare molds", "setting": "[1]; iv", "value": "exceeded"}, {"measurement": "clearance", "setting": "clinical", "value": "25.7 mL/min and 0.348 mL/min/kg"}, {"measurement": "half-life", "setting": "clinical", "value": 74.9, "unit": "h"}, {"measurement": "clearance", "setting": "clinical; CL", "value": "31.5 mL/min and 0.45 mL/min/kg"}, {"measurement": "half-life", "setting": "clinical; geometric mean T1/2, range across treatments", "value": "39.2 to 74.9", "unit": "h"}, {"measurement": "half-life", "setting": "clinical; geometric mean t1/2, range across cohorts", "value": "48 to 69", "unit": "h"}, {"measurement": "half-life", "setting": "clinical; t½", "value": 39.2, "unit": "h"}, {"measurement": "AUC(0-t)", "setting": "clinical; plasma, 150 mg", "value": 51900, "unit": "ng·h/mL"}, {"measurement": "Cmax", "setting": "clinical; plasma, 150 mg", "value": 3420, "unit": "ng/mL"}, {"measurement": "Vd", "setting": "clinical; plasma, 150 mg", "value": "174 L and 2.17 L/kg"}, {"measurement": "AUC(0-inf)", "setting": "clinical; plasma, 350 mg", "value": 173000, "unit": "ng·h/mL"}, {"measurement": "Cmax", "setting": "clinical; plasma, 350 mg", "value": 4330, "unit": "ng/mL"}, {"measurement": "Vd", "setting": "clinical; plasma, 350 mg", "value": "167 L and 2.26 L/kg"}, {"measurement": "effect of high fat/high calorie meal on bioavailability/exposure", "setting": "[2]; 400 mg oral Compound 1", "value": "no significant effect; also recorded: no impact of food"}, {"measurement": "least squares geometric mean ratios (LSGMR) fed/fasted for Cmax and both AUCs", "setting": "[2]; 400 mg oral Compound 1, high fat/high calorie meal", "value": "~106", "unit": "%"}, {"measurement": "Geometric Mean Ratio, AUC(0-t)", "setting": "[2]; [4]", "value": 106.00, "unit": "%"}, {"measurement": "Geometric Mean Ratio, AUC(inf)", "setting": "[2]; [4]", "value": 106.15, "unit": "%"}, {"measurement": "Geometric Mean Ratio, Cmax", "setting": "[2]; [4]", "value": 106.29, "unit": "%"}, {"measurement": "F", "setting": "[2]; Cohort 1B, Fasted", "value": 101.2, "unit": "%"}, {"measurement": "F", "setting": "[2]; Cohort 1B, Fed", "value": 107.4, "unit": "%"}, {"measurement": "AUC(0-t)", "setting": "[2]; human, plasma, po, 400 mg, AUC(0-24), Cohort 1B, 400 mg oral Compound 1, Fed, geometric mean", "value": 43600, "unit": "ng·h/mL"}, {"measurement": "AUC(0-t)", "setting": "[2]; human, plasma, po, 400 mg, AUC(0-t), Cohort 1B, 400 mg oral Compound 1, Fed, geometric mean", "value": 180000, "unit": "ng·h/mL"}, {"measurement": "AUC(0-inf)", "setting": "[2]; human, plasma, po, 400 mg, AUC(inf), Cohort 1B, 400 mg oral Compound 1, Fed, geometric mean", "value": 188000, "unit": "ng·h/mL"}, {"measurement": "CL/F", "setting": "[2]; human, plasma, po, 400 mg, CL/F, Cohort 1B, 400 mg oral Compound 1, Fed, geometric mean", "value": 0.395, "unit": "mL/min/kg"}, {"measurement": "Cmax", "setting": "[2]; human, plasma, po, 400 mg, Cmax, Cohort 1B, 400 mg oral Compound 1, Fed, geometric mean", "value": 4520, "unit": "ng/mL"}, {"measurement": "Tmax", "setting": "[2]; human, plasma, po, 400 mg, Tmax, Cohort 1B, 400 mg oral Compound 1, Fasted, median", "value": 2.5, "unit": "h"}, {"measurement": "Tmax", "setting": "[2]; human, plasma, po, 400 mg, Tmax, Cohort 1B, 400 mg oral Compound 1, Fed, median", "value": 3.75, "unit": "h"}, {"measurement": "Vd/F", "setting": "[2]; human, plasma, po, 400 mg, Vz/F, Cohort 1B, 400 mg oral Compound 1, Fed, geometric mean", "value": "159 L and 2.3 L/kg"}, {"measurement": "Tmax", "setting": "[2]; human, plasma, po, 400 mg, median tmax, 400 mg oral Compound 1, fasted conditions", "value": 2.5, "unit": "h"}, {"measurement": "Tmax", "setting": "[2]; human, plasma, po, 400 mg, median tmax, 400 mg oral Compound 1, fed conditions", "value": 3.75, "unit": "h"}, {"measurement": "half-life", "setting": "[2]; human, plasma, po, 400 mg, t½, Cohort 1B, 400 mg oral Compound 1, Fed, geometric mean", "value": 67.5, "unit": "h"}, {"measurement": "Vd", "setting": "[3]; in vivo, 10 mg", "value": 1.53, "unit": "L/kg"}, {"measurement": "Vd", "setting": "[3]; in vivo, 50 mg", "value": 188, "unit": "L"}, {"measurement": "AUC(0-t)", "setting": "[3]; in vivo, 200 mg", "value": 76000, "unit": "ng·h/mL"}, {"measurement": "AUC(0-t)", "setting": "[3]; plasma, 10 mg, AUC(0-24), Cohort 1: Compound 1 10 mg/3 hr IV, single dose, geometric mean [geometric %CV]", "value": 1540, "unit": "ng·h/mL"}, {"measurement": "AUC(0-t)", "setting": "[3]; plasma, 10 mg, AUC(0-t), Cohort 1: Compound 1 10 mg/3 hr IV, single dose, geometric mean [geometric %CV]", "value": 2380, "unit": "ng·h/mL"}, {"measurement": "AUC(0-inf)", "setting": "[3]; plasma, 10 mg, Cohort 1: Compound 1 10 mg/3 hr IV, single dose, geometric mean [geometric %CV]", "value": 4050, "unit": "ng·h/mL"}, {"measurement": "Tmax", "setting": "[3]; plasma, 10 mg, Cohort 1: Compound 1 10 mg/3 hr IV, single dose, median", "value": 3, "unit": "h"}, {"measurement": "Vd", "setting": "[3]; plasma, 10 mg, Vz, Cohort 1: Compound 1 10 mg/3 hr IV, single dose, geometric mean [geometric %CV]", "value": 107, "unit": "L"}, {"measurement": "AUC(0-t)", "setting": "[3]; plasma, 30 mg, AUC(0-24), Cohort 2: Compound 1 30 mg/3 hr IV, single dose, geometric mean [geometric %CV]", "value": 4320, "unit": "ng·h/mL"}, {"measurement": "AUC(0-t)", "setting": "[3]; plasma, 30 mg, AUC(0-t), Cohort 2: Compound 1 30 mg/3 hr IV, single dose, geometric mean [geometric %CV]", "value": 14100, "unit": "ng·h/mL"}, {"measurement": "AUC(0-inf)", "setting": "[3]; [5]", "value": 16600, "unit": "ng·h/mL"}, {"measurement": "Cmax", "setting": "[3]; [5]", "value": 477, "unit": "ng/mL"}, {"measurement": "Tmax", "setting": "[3]; plasma, 30 mg, Cohort 2: Compound 1 30 mg/3 hr IV, single dose, median", "value": 3, "unit": "h"}, {"measurement": "Vd", "setting": "[3]; plasma, 30 mg, Vz, Cohort 2: Compound 1 30 mg/3 hr IV, single dose, geometric mean [geometric %CV]", "value": "121 L and 1.72 L/kg"}, {"measurement": "AUC(0-t)", "setting": "[3]; plasma, 50 mg, AUC(0-24), Cohort 7: Compound 1 50 mg/3 hr IV QD × 14 days, Day 1, geometric mean", "value": 6390, "unit": "ng·h/mL"}, {"measurement": "AUC(0-t)", "setting": "[3]; plasma, 50 mg, AUC(0-24), Cohort 7: Compound 1 50 mg/3 hr IV QD × 14 days, Day 7, geometric mean", "value": 17600, "unit": "ng·h/mL"}, {"measurement": "AUC(0-t)", "setting": "[3]; plasma, 50 mg, AUC(0-24), Cohort 7: Compound 1 50 mg/3 hr IV QD × 14 days, Day 14, geometric mean", "value": 20300, "unit": "ng·h/mL"}, {"measurement": "Cmax", "setting": "[3]; plasma, 50 mg, Cohort 7: Compound 1 50 mg/3 hr IV QD × 14 days, Day 1, geometric mean", "value": 669, "unit": "ng/mL"}, {"measurement": "Cmax", "setting": "[3]; plasma, 50 mg, Cohort 7: Compound 1 50 mg/3 hr IV QD × 14 days, Day 7, geometric mean", "value": 1090, "unit": "ng/mL"}, {"measurement": "Cmax", "setting": "[3]; plasma, 50 mg, Cohort 7: Compound 1 50 mg/3 hr IV QD × 14 days, Day 14, geometric mean", "value": 1180, "unit": "ng/mL"}, {"measurement": "Tmax", "setting": "[3]; plasma, 50 mg, Cohort 7: Compound 1 50 mg/3 hr IV QD × 14 days, Day 1, median", "value": 3, "unit": "h"}, {"measurement": "Tmax", "setting": "[3]; plasma, 50 mg, Cohort 7: Compound 1 50 mg/3 hr IV QD × 14 days, Day 7, median", "value": 3, "unit": "h"}, {"measurement": "Tmax", "setting": "[3]; plasma, 50 mg, Cohort 7: Compound 1 50 mg/3 hr IV QD × 14 days, Day 14, median", "value": 3, "unit": "h"}, {"measurement": "Vd", "setting": "[3]; plasma, 50 mg, Vz, Cohort 7: Compound 1 50 mg/3 hr IV QD × 14 days, Day 14, geometric mean", "value": 2.44, "unit": "L/kg"}, {"measurement": "AUC(0-t)", "setting": "[3]; plasma, 100 mg, AUC(0-24), Cohort 3: Compound 1 100 mg/3 hr IV, single dose, geometric mean [geometric %CV]", "value": 14400, "unit": "ng·h/mL"}, {"measurement": "AUC(0-t)", "setting": "[3]; plasma, 100 mg, AUC(0-t), Cohort 3: Compound 1 100 mg/3 hr IV, single dose, geometric mean [geometric %CV]", "value": 47400, "unit": "ng·h/mL"}, {"measurement": "AUC(0-inf)", "setting": "[3]; [6]", "value": 50400, "unit": "ng·h/mL"}, {"measurement": "Cmax", "setting": "[3]; [6]", "value": 1440, "unit": "ng/mL"}, {"measurement": "Tmax", "setting": "[3]; plasma, 100 mg, Cohort 3: Compound 1 100 mg/3 hr IV, single dose, median", "value": 3, "unit": "h"}, {"measurement": "Vd", "setting": "[3]; plasma, 100 mg, Vz, Cohort 3: Compound 1 100 mg/3 hr IV, single dose, geometric mean [geometric %CV]", "value": "115 L and 1.88 L/kg"}, {"measurement": "AUC(0-t)", "setting": "[3]; plasma, 150 mg, AUC(0-24), Cohort 8: Compound 1 150 mg/3 hr IV QD × 14 days, Day 1, geometric mean", "value": 19400, "unit": "ng·h/mL"}]}]}
